From article PMC11312998, “Molecular Pro-Apoptotic Activities of Flavanone Derivatives in Cyclodextrin Complexes: New Implications for Anticancer Therapy” (International Journal of Molecular Sciences, 2024)

How the values were obtained:
[1] = system: MCF-7; test: Mitochondrial potential (ΔΨm), JC-1 method; type: cell-based, human; details: IC50 concentration, 24 h
Description: (§1) 5,5,6,6-Tetrachloro-1,1,3,3-tetraethylbenzimidazolylcarbocyanine iodide (JC-1) is a cationic carbocyanine dye commonly used as a fluorescent probe to detect mitochondrial membrane depolarization. In living cells with an intact mitochondrial membrane, the lipophilic JC-1 penetrates the negatively charged mitochondrial matrix as a monomer. It then forms fluorescent aggregates with red-orange fluorescence (λex = 514 nm, λem = 590 nm). During depolarization of the mitochondrial membrane or in apoptotic cells, the concentration of JC-1 decreases, and the aggregates disintegrate into monomers emitting green fluorescence (λex = 514 nm, λem = 529 nm). The fluorescence ratio of aggregates (λem = 590 nm) and monomers (λem = 529 nm)—590 nm/529 nm—reflects the level of damage to the mitochondrial membrane.
(§2) The cells were seeded in black 96-well fluorometric microplates at a density of 10 × 10^3 cells per well. […] After incubation with the compounds, the medium was removed, the cell monolayer in the wells was washed twice with HBSS (140 mM NaCl, 5 mM KCl, 0.8 mM MgCl2, 1.8 mM CaCl2, 1 mM Na2HPO4, 10 mM HEPES and 1% glucose) and 50 μL of JC-1 solution in HBSS was added to each well (final probe concentration 5 μmol/L). Cells were incubated with the probe for 30 min in the dark in an incubator (37 °C). After incubation, the probe was removed and replaced with fresh HBSS buffer. Fluorescence measurements (Perkin-Elmer LS-5B spectrofluorometer, MA, USA) of JC-1 monomers and aggregates were made at the following excitation and emission wavelengths: λex = 514 nm, λem = 529 nm (monomers), λex = 514 nm, λem = 590 nm (aggregates). The results of the tested samples are presented as the percentage fluorescence ratio of JC-1 aggregates and JC-1 monomers relative to the fluorescence ratio of JC-1 aggregates and JC-1 monomers of the control, which was assumed to be 100%.
(§3) A positive control was formed of cells pre-incubated with 5 µmol/L carbonyl cyanide m-chlorophenylhydrazone (CCCP), a chemical inhibitor of oxidative phosphorylation that acts by uncoupling the protons flowing along the electrochemical gradient from phosphorylation.

[2] = system: Hec-1-A; test: Mitochondrial potential (ΔΨm), JC-1 method; type: cell-based, human; details: IC50 concentration, 24 h
Description: as §1, §2, §3

[3] = system: Ishikawa; test: Mitochondrial potential (ΔΨm), JC-1 method; type: cell-based, human; details: IC50 concentration, 24 h
Description: as §1, §2, §3

[4] = system: MDA-MB-231; test: Superoxide anion generation, DHE probe; type: cell-based, human; details: IC50 concentration, 24 h
Protocol: The level of superoxide anion (O2^•−) was determined by microplate spectrofluorimetry with dihydroethidium (hydroethidine, DHE) (Life Technologies, Carlsbad, CA, USA), which is the most commonly used fluorogenic probe for monitoring the intracellular production of superoxide anion O2^•− [41]. […] Thanks to this shift, DHE can be used as a sensitive probe for cellular ROS. The reaction between superoxide and DHE generates a highly specific red fluorescent product, 2-hydroxyethidium (2-OH-E^+).
The cells were seeded in black 96-well fluorometric microplates at a density of 10 × 10^3 cells per well. […] After incubation, the medium was removed, the cell monolayer in the wells was washed twice with HBSS (140 mM NaCl, 5 mM KCl, 0.8 mM MgCl2, 1.8 mM CaCl2, 1 mM Na2HPO4, 10 mM HEPES and 1% glucose) and 50 μL of DHE solution in HBSS was added to each well (final probe concentration 5 μmol/L). Cells were incubated with the probe for 30 min in the dark in an incubator (37 °C), and then fluorescence was measured. The measurement was performed at the following excitation and fluorescence emission wavelengths: λex = 498 nm/λem = 582 nm. Fluorescence measurements were made on a Perkin-Elmer LS-5B spectrofluorometer (MA, USA). Fluorescence intensity values for control cells were arbitrarily set as 100%. The results are presented as percentages of control cell values, calculated relative to the fluorescence intensity of the controls (100%): sample fluorescence was calculated as Δf in relation to the controls.

[5] = system: MCF-7; test: MTT cytotoxicity assay; type: cell-based; details: Homo sapiens, MCF7, 24 h incubation, mean ± SEM, read-out: Cytotoxic effect, IC50
Protocol: (§4) Cell viability was determined using the metabolic microplate spectrophotometric assay with Methylthiazolyl diphenyltetrazolium bromide (MTT), i.e., 3-(4,5-Dimethyl-2-thiazolyl)-2,5-diphenyl-2H-tetrazolium bromide (Sigma-Aldrich; St. Louis, MO, USA). The anticancer activity of the investigated compounds was evaluated in vitro on the basis of their ability to inhibit the proliferation of various cancer cells. The appropriate number of cells for a given cell line (6–8 × 10^3 cells/mL) were seeded into sterile, colorless 96-well microplates. After 24 h of culture, specific wells of the microplate were treated with test compounds (10–200 µmol/L concentration) and incubated in a CO2 incubator for 24 h. The medium was then removed, the cell monolayer was washed twice with sterile PBS solution and fresh culture medium was added to the wells of the microplate.
(§5) After 48 h of cell culture, the MTT test was conducted. In each well of the microplate, 50 µL of tetrazolium salt solution (final concentration 0.05 mg/mL) was added. The microplate was then placed in a CO2 incubator for 3–4 h (depending on the cell line). Following incubation, 100 µL of DMSO (dimethyl sulfoxide, Sigma-Aldrich, St. Louis, MO, USA) was added to the microplate wells to dissolve the purple formazan crystals formed in the environment of living cells. The absorbance of the formazan solution was read at a wavelength of λ = 580 nm and a reference wavelength of λ = 720 nm after gentle mixing (Biotek Power Wave HT, Biotek Instruments, Winooski, VT, USA).
(§6) The percentage of live cells was calculated by comparing the absorbance value of the tested samples with that of the control (cells not treated with compounds). Control absorbance was arbitrarily considered to be 100%.
(§7) In order to determine the contribution of ROS to the cytotoxicity of the tested compounds, the cells were pre-incubated for 1 h with the antioxidant vitamin E (Trolox, Sigma-Aldrich; St. Louis, MO, USA). Cells were seeded into sterile, colorless 96-well microplates at a concentration of 6–8 × 10^3 cells/mL, depending on the cell line. After 24 h of culture, Trolox was added at a final concentration of 50 μM/well. After 1 h of incubation, the antioxidant was washed off, then appropriate concentrations of test compounds (10–200 µmol/L concentration) were added to fresh cell culture medium and incubated for 24 h. The MTT test was then performed under identical experimental conditions, as described in Section 3.1.2.

[6] = system: MDA-MB-231; test: MTT cytotoxicity assay; type: cell-based; details: Homo sapiens, 24 h incubation, mean ± SEM, read-out: Cytotoxic effect, IC50
Protocol: as §4, §5, §6, §7

[7] = system: Hec-1-A; test: MTT cytotoxicity assay; type: cell-based; details: Homo sapiens, 24 h incubation, mean ± SEM, read-out: Cytotoxic effect, IC50
Protocol: as §4, §5, §6, §7

[8] = system: HCC38; test: MTT cytotoxicity assay; type: cell-based; details: Homo sapiens, 24 h incubation, mean ± SEM, read-out: Cytotoxic effect, IC50
Protocol: as §4, §5, §6, §7

[9] = MTT cytotoxicity assay, model of normal cells; type: cell-based; details: human, HMEC-1 cells (model of normal cells), 24 h incubation, mean ± SEM, read-out: Cytotoxic effect, IC50
Protocol: as §4, §5, §6

[10] = system: colon cancer lines; test: GSH concentration in cancer cells (other studies, not yet published); type: cell-based; details: results not yet published

| Compound | decrease in ΔΨm (depolarization) compared to the control [1] | hyperpolarization of ΔΨm compared to control [2] | decrease in ΔΨm [3] | greater superoxide anion level relative to control (DHE probe) [4] | IC50 [5] [µM] | IC50 [6] [µM] | IC50 [7] [µM] | IC50 [8] [µM] | IC50 at 24 h [9] [µM] | GSH concentration in cancer cells (in words) [10] | hyperpolarization of ΔΨm [1] | changes in ΔΨm (in words) [2] | hyperpolarization of mitochondrial membranes relative to controls [3] |
| --- | --- | --- | --- | --- | --- | --- | --- | --- | --- | --- | --- | --- | --- |
| O=C1/C(=C/c2ccccc2)COc2ccccc21 [Compound 1] | approximately 17% | approximately 30% | approximately 30% | approximately 20% | 10.2 ± 0.9 | 12.6 ± 1.1 | 18.5 ± 1.2 | 15.7 ± 0.8 | 21.2 ± 3.1 | decrease in GSH concentration | – | – | – |
| COc1cccc(/C=C2/C(=O)c3ccccc3OC2c2ccccc2)c1 (stereo not drawn) [Compound 3] | – | – | about 15% | approximately 20% | 16.4 ± 2.3 | 15.2 ± 3.1 | 26.9 ± 2.3 | 20.9 ± 1.5 | 24.1 ± 1.3 | decrease in GSH concentration | approximately 30% | no changes in ΔΨm were observed | – |
| O=C1/C(=C/c2ccccc2)C(c2ccccc2)Oc2ccccc21 (stereo not drawn) [Compound 5] | – | – | – | ~30% | 25.1 ± 4.2 | 23.3 ± 1.4 | 35.9 ± 2.4 | 25.6 ± 0.9 | 19.7 ± 3.7 | decrease in GSH concentration | ~40% | no changes in ΔΨm were observed | approximately 30% |
